Results on 3 compounds are retold here after ChEMBL document CHEMBL4813917, “2-((1-Phenyl-1H-1,2,3-triazol-4-yl)methyl)-2-azabicyclo[3.2.1]octan-3-one derivatives: Simplification and modification of aconitine scaffold for the discovery of novel anticancer agents” (Eur J Med Chem, 2021).

Each structure is given as a SMILES string. The source made the active and inactive calls. The rule behind the calls is not given here. Bounds are passed on as bounds.

One series deals with SGC-7901. The series is described as follows: Antiproliferative activity against human SGC-7901 cells assessed as inhibition of cell proliferation measured after 24 hrs by MTT assay. The class given is functional, cell-based. To be noted: SGC-7901, 24 h.
In another series the test system is PANC-1. As to the kind of experiment: Antiproliferative activity against human PANC-1 cells assessed as inhibition of cell proliferation measured after 24 hrs by MTT assay. The class given is functional, cell-based. To be noted: PANC-1, 24 h.
Series [1] deals with SW-620. The series is described as follows: Antitumour activity against human SW-620 cells xenografted in Balb/c mouse assessed as inhibition of tumour growth at 5 mg/kg, ip measured after 21 days. The class given is functional. To be noted: SW-620, ip, 504 h, time 21 day, read-out: TGI.
Series [2] relates to SW-620. As to the kind of experiment: Antitumour activity against human SW-620 cells xenografted in Balb/c mouse assessed as decrease in Ki67 expression in tumour at 5 mg/kg, ip measured after 21 days immunochemical staining method. Type of series: functional, organism-based. To be noted: time 21.0 day.
Series [3] is described as follows: Cytotoxicity against human IOSE80 cells assessed as reduction in cell viability measured after 24 hrs by MTT assay. The class given is cell-based.
The subject of another series is A549. As to the kind of experiment: Antiproliferative activity against human A549 cells assessed as inhibition of cell proliferation measured after 24 hrs by MTT assay. Type of series: functional, cell-based. To be noted: A549, 24 h.
Another series deals with LoVo. As to the kind of experiment: Antiproliferative activity against human LoVo cells assessed as inhibition of cell proliferation measured after 24 hrs by MTT assay. The class given is functional, cell-based.
Series [4] is described as follows: Cytotoxicity against human MRC5 cells assessed as reduction in cell viability measured after 24 hrs by MTT assay. The class given is cell-based.
The nature of series [5]: Cytotoxicity against human NCM460 cells assessed as reduction in cell viability measured after 24 hrs by MTT assay. The class given is cell-based.
Series [6] can be described thus: Cytotoxicity against human L02 cells assessed as reduction in cell viability measured after 24 hrs by MTT assay. The class given is cell-based.
In the next series the test system is OVCAR-3. The series is described as follows: Antiproliferative activity against human OVCAR-3 cells assessed as inhibition of cell proliferation measured after 24 hrs by MTT assay. The class given is functional, cell-based. To be noted: OVCAR-3, 24 h.
Series [7] in a line: Cytotoxicity against human HPDE6c7 cells assessed as reduction in cell viability measured after 24 hrs by MTT assay. The class given is functional.
Series [8] in a line: Cytotoxicity against human GES1 cells assessed as reduction in cell viability measured after 24 hrs by MTT assay. The class given is cell-based.
The next series concerns HepG2. The series is described as follows: Antiproliferative activity against human HepG2 cells assessed as inhibition of cell proliferation measured after 24 hrs by MTT assay. The class given is functional, cell-based. To be noted: HepG2, 24 h.
In series [9] the target is Heat shock protein HSP 90-alpha (Homo sapiens, UniProt P07900). As to the kind of experiment: Inhibition of recombinant human N terminal his-tagged HSP90 alpha (1 to 732 residues) expressed in Escherichia coli measured after 60 mins by Flourescence polarization assay.

Take `C=CCNC1=C2C[C@@H](C)C[C@H](OC)[C@H](O)[C@@H](C)/C=C(\C)[C@H](OC(N)=O)[C@@H](OC)/C=C\C=C(/C)C(=O)NC(=CC1=O)C2=O` [TANESPIMYCIN]: the IC50 is above 10 µM with SGC-7901; 3.21 µM in the series with PANC-1; above 10 µM in the series with A549; 0.26 µM in the series with LoVo; 0.48 µM in the series on OVCAR-3; 0.33 µM with HepG2. In the series on SW-620 [1], the inhibition in vivo at 5 mg/kg was 29.6%. For the same compound, the outcome in the series with SW-620 [2] was Active. Besides, the CC50 at 24 h in series [3] came to 21.5 µM; in series [4], 14.2 µM; in [5], 14.2 µM; in series [6] it was 11.7 µM; in [8] it was 7.94 µM. The CC50 in series [7] was 19.5 µM.

As for `CC1(C)[C@H]2CC[C@]1(C)N(Cc1cn(-c3cccc(Cl)c3)nn1)C(=O)C2`, the concentration for half-maximal inhibition (IC50) was determined as 0.51 µM in the series on SGC-7901; 0.26 µM in the series on PANC-1; 0.00738 µM in series [9]; 0.06 µM in the series with A549; 0.07 µM in the series on LoVo; 0.05 µM in the series with OVCAR-3. In the series with HepG2, the 50% inhibitory concentration (IC50) came out at 0.06 µM. Besides, the half-maximal cytotoxic concentration (CC50) at 24 h is 13.5 µM in series [3]; 8.84 µM in [4]; 8.41 µM in series [5]; 8.51 µM in series [6]; 69.8 µM in series [8]. In addition, the CC50 in [7] was 13 µM.

Regarding `CC1(C)[C@H]2CC[C@]1(C)N(Cc1cn(-c3ccc(C#N)cc3)nn1)C(=O)C2`, the IC50 in the series with SGC-7901 stood at 0.5 µM; in the series with PANC-1, 0.25 µM; in series [9], 0.0218 µM; with A549, 0.14 µM; in the series with LoVo, 0.09 µM; in the series on OVCAR-3, 0.38 µM. Further, the IC50 with HepG2 is 0.05 µM. Further, the CC50 at 24 h in [3] worked out at 5.52 µM; in series [4], 10.8 µM; in series [5], 8.14 µM; in [6], 15.7 µM; in series [8] it was 11.2 µM. Further, the CC50 in series [7] was above 100 µM.
